Test [1] concerns the target T1, SHP2 protein (Homo sapiens, UniProt Q06124).
T1 sequence (Q06124 1-593): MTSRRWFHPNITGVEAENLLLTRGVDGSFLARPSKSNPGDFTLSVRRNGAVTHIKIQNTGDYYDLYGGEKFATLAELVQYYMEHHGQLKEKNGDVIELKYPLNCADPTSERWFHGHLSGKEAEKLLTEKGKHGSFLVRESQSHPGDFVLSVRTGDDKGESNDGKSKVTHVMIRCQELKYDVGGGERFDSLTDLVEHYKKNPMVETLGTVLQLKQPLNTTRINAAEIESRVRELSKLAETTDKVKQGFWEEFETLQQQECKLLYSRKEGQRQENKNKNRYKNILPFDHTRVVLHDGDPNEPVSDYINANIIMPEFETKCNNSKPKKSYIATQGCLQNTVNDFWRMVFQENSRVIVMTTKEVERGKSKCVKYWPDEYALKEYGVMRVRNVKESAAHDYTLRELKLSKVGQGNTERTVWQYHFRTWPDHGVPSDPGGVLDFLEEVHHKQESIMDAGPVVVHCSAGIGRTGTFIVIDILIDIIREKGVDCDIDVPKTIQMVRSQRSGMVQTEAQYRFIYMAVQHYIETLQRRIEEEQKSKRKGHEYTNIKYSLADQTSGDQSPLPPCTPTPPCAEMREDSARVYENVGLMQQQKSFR
As to the kind of experiment: Degradation activity on SHP2 protein in MV-411 cells (Western blot, DC50). The format is cell-based. Also noted: endogenous in cells. Particulars: MV411 cells, 24 hours, read-out: Degradation activity for differenct cell lines MV411 (DC50). A digest of the protocol:
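Western blot of SHP2 (GAPDH loading control, 30 μg protein/lane) in lysates of MV-411 cells exposed 24 h to final compound concentrations of 100, 10, 3, 1, 0.3 and 0.1 nM (0.1% DMSO). Degradation relative to DMSO set at 100%; DC50 derived by curve fitting.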

The target of test [2] is T1, SHP2 protein. As to the kind of experiment: Degradation activity on SHP2 protein in MIA Paca-2 cells (Western blot, DC50). Type of test: cell-based. The arrangement: endogenous in cells; host or cells: MIA Paca-2 cells. Particulars: read-out: Degradation activity for differenct cell lines MIA Paca-2 (DC50). Summed up:
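DC50 is the concentration degrading 50% of SHP2 relative to DMSO control. It was derived by fitting Western blot band densitometry (anti-SHP2, GAPDH reference) from cells exposed 24 h to 0.1–100 nM compound in 0.1% DMSO.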

The record followed here is US20240383908A1, “SYNTHESIS AND APPLICATION OF PHOSPHATASE DEGRADER” (HINOVA PHARMACEUTICALS INC., priority 2021, published 2024).

Some results are limits rather than exact numbers.

Turning to `CC1(N)CCN(c2cnc(Sc3cccc(NC(=O)CCCCCCCCN4CCN(c5ccc(C(=O)NCc6ccc7c(c6)CN(C6CCC(=O)NC6=O)C7=O)nn5)CC4C(F)(F)F)c3)cn2)CC1` (stereo not drawn) [Compound 174], the DC50 on SHP2 protein [1] and on SHP2 protein [2] was less than 100 nM in each case.

Regarding `NC1(CO)CCN(c2cnc(Sc3cccc(NC(=O)CCCCCCN4CC5(CCN(c6ccc(C(=O)NCc7ccc8c(c7)CN(C7CCC(=O)NC7=O)C8=O)nn6)C5)C4)c3)cn2)CC1` (stereo not drawn) [Compound 168], the DC50 on SHP2 protein [1] and at SHP2 protein [2] was less than 100 nM throughout.

`CCC1(N)CCN(c2cnc(Sc3cccc(NC(=O)CCCCCCN4CC5(CCN(c6ccc(C(=O)NCc7ccc8c(c7)CN(C7CCC(=O)NC7=O)C8=O)nn6)C5)C4)c3)cn2)CC1` (stereo not drawn) [Compound 161]: the DC50 at SHP2 protein [1] and at SHP2 protein [2] was less than 100 nM throughout.

As to `CC1(N)CCN(c2cnc(Sc3cccc(NC(=O)CCCCCCCCN4CCN(c5ccc(C(=O)NCc6ccc7c(c6)CN(C6CCC(=O)NC6=O)C7=O)nn5)CC4)c3)cn2)CC1` (stereo not drawn) [Compound 63], the DC50 on SHP2 protein [1] and on SHP2 protein [2] was less than 100 nM each time.

For the compound `CC1(N)CCN(c2cnc(Sc3cccc(NC(=O)CCCCCCCCN4C5CCC4CN(c4ccc(C(=O)NCc6ccc7c(c6)CN(C6CCC(=O)NC6=O)C7=O)nn4)C5)c3)cn2)CC1` (stereo not drawn) [Compound 119], the DC50 on SHP2 protein [1] and on SHP2 protein [2] was less than 100 nM each time.

Turning to `Cc1ncsc1-c1ccc([C@H](C)NC(=O)[C@@H]2C[C@@H](O)CN2C(=O)[C@@H](NC(=O)CCCCCCCCN2CCN(C(=O)CCC(=O)Nc3cccc(Sc4ncc(N5CCC(C)(N)CC5)nc4N)c3Cl)CC2)C(C)(C)C)cc1` [Compound 999], the DC50 at SHP2 protein [1] and at SHP2 protein [2] was less than 100 nM each time.
